Experimental data reported in patent publication US5512553A, “7-(substituted)-8-(substituted)-9-(substituted amino)-6-demethyl-6-deoxytetracyclines” (American Cyanamid Company, priority 1995, dated 1996).
Structures can show the parent of a compound that is named as a salt. Where two headings read alike, the source gives them in different places.

Key:
[1] = tested on: Staphylococcus aureus strain Smith (tetracycline sensitive); test: In vivo antibacterial evaluation, acute lethal infection in mice; conditions: 168 h, female mice CD-1, intraperitoneal challenge with S. aureus Smith, dosed subcutaneously or orally 30 minutes after infection, 7 day survival ratios
Protocol: In Vivo Antibacterial Evaluation (Table III)
The therapeutic effects of tetracyclines are determined against an acute lethal infection with Staphylococcus aureus strain Smith (tetracycline sensitive). Female, mice, strain CD-1 (Charles River Laboratories), 20±2 grams, are challenged by an intraperitoneal injection of sufficient bacteria (suspended in hog mucin) to kill non-treated controls within 24-48 hours. Antibacterial agents, contained in 0.5 ml of 0.2% aqueous agar, are administered subcutaneously or orally 30 minutes after infection. When an oral dosing schedule is used, animals are deprived of food for 5 hours before and 2 hours after infection. Five mice are treated at each dose level. The 7 day survival ratios from 3 separate tests are pooled for calculation of median effective dose (ED50).

E. coli UBMS 88-1 (tetB) = test: microbe, parasite or virus in culture; type: cell-based; conditions: Escherichia coli, 18 h
Protocol: (§1) Method for In Vitro Antibacterial Evaluation (Table I)
(§2) The minimum inhibitory concentration (MIC), the lowest concentration of the antibiotic which inhibits growth of the test organism, is determined by the agar dilution method using Muller-Hinton II agar (Baltimore Biological Laboratories). An inoculum density of 1-5×10^5 CFU/ml and an antibiotic concentration (32-≤0.015 μg/ml) is used. The plates are incubated for 18 hours at 35° C. in a forced air incubator. The test organisms comprise strains sensitive to tetracycline and genetically defined strains that are resistant to tetracycline, due to inability to bind bacterial ribosomes (tetM).

[2] = tested on: S. aureus UBMS 88-5 (tetM); test: microbe, parasite or virus in culture; type: cell-based; conditions: Staphylococcus aureus, 18 h
Protocol: as §1, §2

[3] = tested on: S. aureus UBMS 90-2 (tetM); test: microbe, parasite or virus in culture; type: cell-based; conditions: Staphylococcus aureus, 18 h
Protocol: as §1, §2

[4] = tested on: S. aureus UBMS 88-7 (tetK); test: microbe, parasite or virus in culture; type: cell-based; conditions: Staphylococcus aureus, 18 h
Protocol: as §1, §2

[5] = tested on: S. aureus UBMS 90-1 (tetM); test: microbe, parasite or virus in culture; type: cell-based; conditions: Staphylococcus aureus, 18 h
Protocol: as §1, §2

E. coli UBMS 89-1 (tetM) = test: microbe, parasite or virus in culture; type: cell-based; conditions: Escherichia coli, 18 h
Protocol: as §1, §2

Enteroc. spp. 12201 = test: In vitro antibacterial evaluation, MIC by agar dilution; type: cell-based; conditions: 18 h
Protocol: as §1, §2

[6] = tested on: S. aureus SMITH (MP) (sensitive); test: as above; type: cell-based; conditions: Staphylococcus aureus
Protocol: as §1, §2

[7] = tested on: S. aureus ATCC 29213 (sensitive); test: as above; type: cell-based; conditions: Staphylococcus aureus
Protocol: as §1, §2

[8] = tested on: S. aureus UBMS 90-3 (sensitive); test: as above; type: cell-based; conditions: Staphylococcus aureus, 18 h
Protocol: as §1, §2

S. faecal. ATCC 29212 = test: as above; type: cell-based; conditions: 18 h
Protocol: as §1, §2

S. haemol. AVAH 88-3 = test: as above; type: cell-based
Protocol: as §1, §2

[9] = tested on: S. aureus IVES 2943 (meth. resistant); test: as above; type: cell-based; conditions: Staphylococcus aureus, 18 h
Protocol: as §1, §2

[10] = tested on: S. aureus IVES 1983 (MP) (meth. resistant); test: as above; type: cell-based; conditions: Staphylococcus aureus, 18 h
Protocol: as §1, §2

[11] = tested on: E. coli UBMS 88-2 (sensitive); test: as above; type: cell-based; conditions: Escherichia coli
Protocol: as §1, §2

[12] = tested on: S. aureus UBMS 88-4 (sensitive); test: as above; type: cell-based; conditions: Staphylococcus aureus
Protocol: as §1, §2

E. coli ATCC 25922 = test: as above; type: cell-based; conditions: Escherichia coli
Protocol: as §1, §2

[13] = tested on: E. coli UBMS 89-2 (sensitive); test: as above; type: cell-based; conditions: Escherichia coli, Muller-Hinton II agar, 18 hours at 35° C.
Protocol: as §1, §2

Row | SMILES | MIC (E. coli UBMS 88-1 (tetB)) [µg/mL] | MIC [2] [µg/mL] | MIC [3] [µg/mL] | MIC [4] [µg/mL] | MIC [5] [µg/mL] | MIC (E. coli UBMS 89-1 (tetM)) [µg/mL] | MIC (Enteroc. spp. 12201) [µg/mL] | MIC [8] [µg/mL] | MIC (S. faecal. ATCC 29212) [µg/mL] | MIC [9] [µg/mL] | MIC [10] [µg/mL] | MIC [13] [µg/mL] | other results
1 | CN(C)[C@@H]1C(O)=C(C(N)=O)C(=O)[C@@]2(O)C(O)=C3C(=O)c4c(cc(Cl)c(NC=O)c4O)CC3CC12 (stereo partly shown) [A HCL] |  |  |  |  |  |  |  |  |  |  |  |  | ED50 [1]: 4 to 8 mg/kg
2 | CN(C)[C@@H]1C(O)=C(C(N)=O)C(=O)[C@@]2(O)C(O)=C3C(=O)c4c(O)cc(Cl)c(N)c4CC3CC12 (stereo partly shown) [Compound C, 7-Amino-8-chloro-4-(dimethylamino)-1,4-4a,5,5a,6,11,12a-octahydro-3,10,12,12a-tetrahydroxy-1,11-dioxo-2-naphthacenecarboxamide hydrochloride] | > 32 | 32 | 8 | > 32 | 32 | 32 | 32 | 0.12 | 8 | > 32 | > 32 | 4 | MIC ([6]; agar dilution, Muller-Hinton II agar, 18 hours at 35° C., S. aureus SMITH (MP) (sensitive), read-out: MIC): 0.25 µg/mL; MIC ([7]; ATCC29213, agar dilution, Muller-Hinton II agar, 18 hours at 35° C., S. aureus ATCC 29213 (sensitive), read-out: MIC): 0.12 µg/mL; MIC (S. haemol. AVAH 88-3; agar dilution, Muller-Hinton II agar, 18 hours at 35° C., S. haemol. AVAH 88-3, read-out: MIC): 1 µg/mL; MIC ([11]; agar dilution, Muller-Hinton II agar, 18 hours at 35° C., E. coli UBMS 88-2 (sensitive), read-out: MIC): 2 µg/mL; MIC ([12]; agar dilution, Muller-Hinton II agar, 18 hours at 35° C., S. aureus UBMS 88-4 (sensitive), read-out: MIC): 0.5 µg/mL; MIC (E. coli ATCC 25922; ATCC25922, agar dilution, Muller-Hinton II agar, 18 hours at 35° C., E. coli ATCC 25922, read-out: MIC): 2 µg/mL
3 | CN(C)c1c(Cl)c(NC=O)c(O)c2c1CC1CC3C(N(C)C)C(O)=C(C(N)=O)C(=O)C3(O)C(O)=C1C2=O.O=S(=O)(O)O (stereo not shown) [F, 8-Chloro-4,7-bis(dimethylamino)-9-(formylamino)-1,4,4a,5,5a,6,11,12a-octahydro-3,10,12,12a-tetrahydroxy-1,11-dioxo-2-naphthacenecarboxamide sulfate] | > 32 | 0.25 | 0.12 | 4 | 0.5 | 0.5 | 0.5 | 0.06 | 0.06 | 8 | 8 | 1 | MIC ([6]; 18 h): 0.06 µg/mL; MIC ([7]; ATCC29213, 18 h): 0.06 µg/mL; MIC (S. haemol. AVAH 88-3; 18 h): 0.12 µg/mL; MIC ([11]; 18 h): 1 µg/mL; MIC ([12]; 18 h): 0.12 µg/mL; MIC (E. coli ATCC 25922; ATCC25922, 18 h): 0.25 µg/mL
